Data: patent US20170305883A1, “Compositions and Methods for Inhibiting BMP” (THE BRIGHAM AND WOMEN'S HOSPITAL, INC., priority 2014, published 2017)

Assays:
[1] = molecular target: T1, ALK2 (Homo sapiens, UniProt Q04771, Q207D); test: Thermal shift kinase assay; assay type: binding; conditions: ALK2 ΔTm minus ALK5 ΔTm
T1 construct: His tag (N, cleaved yes); made in house; host or cells: Sf9 insect cells (baculovirus)
T1 sequence (Q04771 201-499 Q207D): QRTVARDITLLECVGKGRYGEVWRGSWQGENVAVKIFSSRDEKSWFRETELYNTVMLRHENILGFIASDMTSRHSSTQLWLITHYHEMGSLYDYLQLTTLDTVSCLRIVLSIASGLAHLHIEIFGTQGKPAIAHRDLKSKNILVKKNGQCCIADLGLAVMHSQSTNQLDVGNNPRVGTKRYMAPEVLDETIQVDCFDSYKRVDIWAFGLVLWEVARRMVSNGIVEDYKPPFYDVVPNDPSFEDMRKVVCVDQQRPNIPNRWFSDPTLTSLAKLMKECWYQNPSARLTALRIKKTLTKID
Procedure: Thermal melting experiments were performed using a Real Time PCR machine Mx3005p (Stratagene) with a protein concentration of 1-2 μM and 10 μM inhibitor as described by Niesen et al., Nat Protoc 2007, 2, 2212-21. Recombinant human kinases for DSF screening were prepared by SGC using the published methods of […] et al., PLoS One 2013, 8, e62721. The potency and selectivity of certain compounds of the invention based on thermal shift kinase and ligand induced transcriptional activity assays are shown in Table 2.

[2] = molecular target: PKC-η (Homo sapiens, UniProt P24723); test: Kinome profiling; assay type: biochemical; conditions: 100 nM, read-out: Inhibitory activity
Procedure: The kinome-wide selectivity was determined following the methods previously reported by Mohedas et al., ACS Chem Biol 2013, 8, 1291-1302 and […] et al., PLoS One 2013, 8, e62721.

Chain of PKC-η (P24723 whole entry): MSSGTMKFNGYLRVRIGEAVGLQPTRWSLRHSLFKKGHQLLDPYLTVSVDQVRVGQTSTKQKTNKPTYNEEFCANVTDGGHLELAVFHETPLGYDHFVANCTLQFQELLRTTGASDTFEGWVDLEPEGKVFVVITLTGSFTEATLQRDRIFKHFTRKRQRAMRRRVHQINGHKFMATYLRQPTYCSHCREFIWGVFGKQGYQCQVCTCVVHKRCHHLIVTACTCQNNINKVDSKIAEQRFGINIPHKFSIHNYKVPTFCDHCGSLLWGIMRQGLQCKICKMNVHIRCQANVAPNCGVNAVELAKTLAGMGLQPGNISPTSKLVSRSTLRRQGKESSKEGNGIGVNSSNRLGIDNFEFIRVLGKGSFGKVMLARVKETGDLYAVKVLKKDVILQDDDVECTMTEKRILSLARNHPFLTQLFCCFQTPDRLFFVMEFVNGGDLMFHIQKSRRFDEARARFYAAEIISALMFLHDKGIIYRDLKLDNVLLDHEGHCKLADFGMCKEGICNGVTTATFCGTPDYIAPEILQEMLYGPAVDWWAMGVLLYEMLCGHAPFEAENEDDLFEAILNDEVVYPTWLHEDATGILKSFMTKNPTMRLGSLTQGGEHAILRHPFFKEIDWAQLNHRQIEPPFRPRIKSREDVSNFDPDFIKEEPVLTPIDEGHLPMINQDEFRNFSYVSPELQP

SMILES | ΔTm Diff. [1] [°C] | inhibition at 0.1 µM [2] [%]
COc1cc(-c2cc(-c3ccc(N4CCNCC4)cc3)cnc2C)cc(OC)c1OC [Compound 10, 1-(4-(6-methyl-5-(3,4,5-trimethoxyphenyl)pyridin-3-yl)phenyl)piperazine] | 4.0 | 
COc1cc(-c2cc(-c3ccc(O)cc3)cnc2N)cc(OC)c1OC [Compound 11, 4-(6-Amino-5-(3,4,5-trimethoxyphenyl)pyridin-3-yl)phenol] | 1.5 | 
COc1cc(-c2cnc(N)c(-c3cc(OC)c(OC)c(OC)c3)c2)ccc1O [Compound 12, 4-(6-amino-5-(3,4,5-trimethoxyphenyl)pyridin-3-yl)-2-methoxyphenol] | 1.7 | 
COc1cc(-c2cc(-c3cccc(NS(C)(=O)=O)c3)cnc2N)cc(OC)c1OC [Compound 13, N-(3-(6-amino-5-(3,4,5-trimethoxyphenyl)pyridin-3-yl)phenyl)methanesulfonamide] | 0.9 | 
COc1cc(-c2cc(-c3cccc(N4CCNCC4)c3)cnc2N)cc(OC)c1OC [Compound 14, 5-(3-(piperazin-1-yl)phenyl)-3-(3,4,5-trimethoxyphenyl)pyridin-2-amine] | 0.8 | 
COc1cc(-c2cc(-c3ccc(N4CCNCC4)cc3)cnc2N)cc(OC)c1OC [Compound 15, 5-(4-(piperazin-1-yl)phenyl)-3-(3,4,5-trimethoxyphenyl)pyridin-2-amine] | 1.2 | 5
COc1ccc(-c2cc(-c3ccc(N4CCNCC4)cc3)cnc2N)cc1OC [Compound 16, 3-(3,4-dimethoxyphenyl)-5-(4-(piperazin-1-yl)phenyl)pyridin-2-amine] | 4.3 | 
COc1cc(OC)cc(-c2cc(-c3ccc(N4CCNCC4)cc3)cnc2N)c1 [Compound 17, 3-(3,5-dimethoxyphenyl)-5-(4-(piperazin-1-yl)phenyl)pyridin-2-amine] | 3.5 | 
COc1cccc(-c2cc(-c3ccc(N4CCNCC4)cc3)cnc2N)c1 [Compound 18, 3-(3-methoxyphenyl)-5-(4-(piperazin-1-yl)phenyl)pyridin-2-amine] | 3.8 | 
Nc1ncc(-c2ccc(N3CCNCC3)cc2)cc1-c1ccc2c(c1)OCCO2 [Compound 19, 3-(2,3-dihydrobenzo[b][1,4]dioxin-6-yl)-5-(4-(piperazin-1-yl)phenyl)pyridin-2-amine] | 4.0 | 
COc1ccc(-c2cc(-c3ccc(N4CCNCC4)cc3)cnc2N)cc1 [Compound 20, 3-(4-methoxyphenyl)-5-(4-(piperazin-1-yl)phenyl)pyridin-2-amine] | 4.5 | 
CC(C)Oc1cccc(-c2cc(-c3ccc(N4CCNCC4)cc3)cnc2N)c1 [Compound 21, 3-(3-isopropoxyphenyl)-5-(4-(piperazin-1-yl)phenyl)pyridin-2-amine] | 1.0 | 
COc1cc(-c2cc(-c3ccc(N4CCNCC4)cc3)cnc2N)ccc1Cl [Compound 22, 3-(4-chloro-3-methoxyphenyl)-5-(4-(piperazin-1-yl)phenyl)pyridin-2-amine] | 2.7 | 
COc1cc(-c2cc(-c3ccc(N4CCNCC4)cc3)cnc2N)ccc1C [Compound 23, 3-(3-methoxy-4-methylphenyl)-5-(4-(piperazin-1-yl)phenyl)pyridin-2-amine] | 3.8 | 
CNc1ncc(-c2ccc(N3CCNCC3)cc2)cc1-c1cc(OC)c(OC)c(OC)c1 [Compound 24, N-methyl-5-(4-(piperazin-1-yl)phenyl)-3-(3,4,5-trimethoxyphenyl)pyridin-2-amine] | −0.5 | 
COc1cc(-c2cc(-c3ccc(N4CCNCC4)cc3)cnc2N(C)C)cc(OC)c1OC [Compound 25, N,N-dimethyl-5-(4-(piperazin-1-yl)phenyl)-3-(3,4,5-trimethoxyphenyl)pyridin-2-amine] | 0.1 | 
COc1cc(-c2cncc(-c3ccc(N4CCNCC4)cc3)c2)cc(OC)c1OC [Compound 26, 1-(4-(5-(3,4,5-trimethoxyphenyl)pyridin-3-yl)phenyl)piperazine] | 3.7 | 
COc1cc(-c2cc(-c3ccc(N4CCNCC4)cc3)cnc2Cl)cc(OC)c1OC [Compound 27, 1-(4-(6-chloro-5-(3,4,5-trimethoxyphenyl)pyridin-3-yl)phenyl)piperazine] | 3.8 | 
COc1cc(-c2cc(-c3ccc(N4CCNCC4)cc3)cnc2OC)cc(OC)c1OC [Compound 28, 1-(4-(6-methoxy-5-(3,4,5-trimethoxyphenyl)pyridin-3-yl)phenyl)piperazine] | 0.1 | 
Nc1ncc(-c2ccc(N3CCNCC3)cc2)cc1-c1ccnc2ccccc12 [Compound 29] | 3.4 | 
Nc1ncc(-c2cccc(N3CCNCC3)c2)cc1-c1ccnc2ccccc12 [Compound 30, 5-(3-(piperazin-1-yl)phenyl)-3-(quinolin-4-yl)pyridin-2-amine] | 2.5 | 
Nc1ncc(-c2ccc(N3CCNCC3)cc2)cc1-c1cccc2ncccc12 [Compound 31, 5-(4-(piperazin-1-yl)phenyl)-3-(quinolin-5-yl)pyridin-2-amine] | 4.2 | 
COc1cc(-c2cnn3cc(-c4ccc(N5CCNCC5)cc4)cnc23)cc(OC)c1OC [Compound 32, 3-(3,4,5-trimethoxyphenyl)-6-[4-(1-piperazinyl)phenyl]pyrazolo[1,5-a]pyrimidine] | 2.6 | 
COc1cc(OC)cc(-c2cncc(-c3ccc(N4CCNCC4)cc3)c2)c1 [Compound 33, 1-(4-(5-(3,5-dimethoxyphenyl)pyridin-3-yl)phenyl)piperazine] | 4.7 | 
COc1cc(-c2cc(-c3cccc(O)c3)cnc2N)cc(OC)c1OC [Compound K02288, 3-(6-Amino-5-(3,4,5-trimethoxyphenyl)pyridin-3-yl)phenol, reference compound] | 2.0 | 
